Values joined by “and” are separate entries in the source; they are usually repeats but may differ in a detail not shown here. Identical values can stand only once. Like-named read-outs stand apart in the source and are kept apart here. Values belong to the molecule of their own block, whether it stands above or below them.
Assays:
[1] = water solubility of the solvent used, cited from earlier work
[2] = Solvent extraction of HMD from aqueous feed (recovery, distribution coefficient, selectivity); type: physicochemical; conditions: for available free base HMD extracted: 1:1 solvent to feed ratio
Method: The example describes the solvent extraction of HMD from the CO2 stripped solution prepared in Example 3 above as well as extracting HMD from an aqueous solution without pH adjustment as a control for solvent performance. The following protocol was used in this example:
The pH of the aqueous feed was measured. In a 50 mL falcon tube, 20 g of solvent was mixed with 20 g of feed. This combination was further aggressively mixed in the falcon tube for 5 minutes and vortexed for 1 minute. The tube with the mixed solvent and feed was allowed to settle until phase separation was complete. The volume of the bottom, aqueous layer was recorded. A sample of the top layer was carefully pipetted out the top layer. A sample the bottom layer was also obtained and the pH of the bottom layer measured. The recovery, distribution coefficients and selectivity based on mass balance were calculated.
The extraction data for three solvents extracting HMD from water are set out in Table 4-1.

[3] = HMD/CO2 pH equilibrium under changing conditions (CO2 sparge, air sparge, heat); type: physicochemical; conditions: for pH (temp. in ° C.): 10% w/w aqueous HMD solution
Method: This experiment illustrates HMD/CO2 pH equilibrium under changing conditions. In this example, a 10% w/w aqueous HMD solution was prepared (70% HMD purchased from Sigma Aldrich). The HMD solution was heated to 30° C. and initial pH recorded. Next, CO2 (approximately 98% pure) was bubbled into the solution for 60 min while monitoring pH. The CO2 sparge was stopped. Air was sparged into solution for 30 min while monitoring pH. […] The pH was measured by sampling 3 mL to a falcon tube and cooling to 30° C. […] The solution was cooled to 30° C. and a final pH recorded. The measured pH values are plotted in Graphs 1-1, 1-2 and 1-3, below. It was noted that the temperature probe on pH meter was reading 44.4° C. at […]. and cooled back down to 30° C. by the end of the 60 min. […] This temperature increase can also account for the nonlinearity in FIG. 27-29 because pH decreases with increasing temperature.
Extraction should be possible at this pH. Aeration during fermentation may be able to strip off some of the dissolved CO2.

[4] = Simulated fermentation: CO2 and HMD fed into MM9 solution, pH monitored; type: physicochemical; conditions: average rate 3.31 g/L/hr
Excerpt: This example reports the results of a simulated fermentation process. Briefly, CO2 (approximately 98% pure) and HMD (70% HMD from Sigma Aldrich) were fed into an MM9 solution that had the following composition: • 0.68% (6.8 g/L) Disodium phosphate Na2HPO4 • 0.3% (3 g/L) Monopotassium phosphate KH2PO4 • 0.15%(1.5 g/L) Ammonium chloride NH4Cl • 0.1% (1 g/L) Ammonium sulfate (NH4)2SO4 • 0.05% (0.5 g/L) Sodium chloride NaCl
The measured pH of the solution and concentration of HMD added over time are set out in FIG. 30.
This feed rate used in this example corresponds to an average rate of 3.31 g/L/hr (a reasonable production rate in an industrial fermentation process). The final titer and feed concentration of HMD was confirmed by LCMS. The HMD and CO2 reach a dynamic equilibrium around pH 8.5. As more HMD is added, more CO2 is absorbed. The simulated HMD:CO2 ratio is 1.95 for pH=8.53. […] FIGS. 31 and 32 illustrate the relative concentration of species as a function of pH for HMD and H2CO3, respectively.
At pH 8.5 (dashed, black line) the major species in solution are the diprotonated HMD and bicarbonate. A minority presence of HMD-carbamate may be present as well.

[5] = Regeneration of HMD free base from CO2-adjusted MM9 solution by air sparge and reflux; type: physicochemical; conditions: for CO2:HMD ratio: based on calculation from pH
Method: A 250 mL four-neck flask was fitted with a condenser, temperature probe, and air sparge needle. The system was open to air through the top of the condenser. The feed was an aqueous HMD solution in MM9 where pH was adjusted to 8.68 with CO2. The feed solution was analyzed for HMD concentration by LCMS and the pH was measured. The solution was sparged with air and refluxed at 85° C. for three hours. The resulting solution's pH was taken and the concentration of HMD measured by LCMS.
The concentration increased slightly as some water escaped through the condenser and the solution was concentrated. The fraction of HMD in free base form at pH 11.26 is 57%.

[6] = HMD in DI water, [HMD] = 835 mM, 20 g solvent : 20 g feed
[7] = HMD in DI water, [HMD] = 835 mM, bottom aqueous layer after extraction, 20 g solvent : 20 g feed
[8] = HMD in deionized (DI) water, [HMD] = 835 mM, aqueous feed before extraction

SMILES: CCCCCCO [1-hexanol]
% Solubility ([1]; Table 4-1): 0.59% | % Solubility ([1]; Table 4-2): 0.59%

SMILES: OC1CCCCC1 [Cyclohexanol]
% water in extract [2, 6]: 16.65% | pH after [2, 7]: 12.36 | pH before [2, 8]: 12.70

pH restored by air and heat ([3]; 10% w/w aqueous HMD solution after 60 min CO2 bubbling, then air sparge and heating to 80-88° C, pH read at 30° C): 11.02 | pH (temp. in ° C.) ([3]; Heated to 80° C. for 30 min. w/ sparge, sample cooled to 30 °C): 10.49 | pH (temp. in ° C.) ([3]; Heated to 88° C. for 15 min. w/ sparge, pH at 22.5 °C): 11.02 | pH (temp. in ° C.) ([3]; Heated to 88° C. for 15 min. w/ sparge, pH at 30 °C): 10.76 | pH (temp. in ° C.) ([3]; House air sparge for 30 min. at 30° C., pH at 30 °C): 8.23 | pH (temp. in ° C.) ([3]; Initial conditions, pH at 30 °C): 12.25 | pH (temp. in ° C.) ([3]; Sat open to air over night, pH at 20.6 °C): 10.78 | pH (temp. in ° C.) ([3]; Sparge CO2 for 60 min. at 30° C., pH at 30 °C): 7.96 | pH of dynamic equilibrium of HMD and CO2 [4]: ~8.5 | pH ([5]; Feed stream: HMD in MM9, pH adjusted with CO2, @ 21.7° C.): 8.68 @ | CO2:HMD ratio ([5]; Feed stream): 1.91 | pH ([5]; Product stream after air sparge and reflux at 85° C. for three hours, @ 23.5° C.): 11.26 @ | CO2:HMD ratio ([5]; Product stream): 0.277 | fraction of HMD in free base form ([5]; at pH 11.26): 57% | pH after CO2 stripping ([5]; feed pH 8.68 in MM9, air sparge, reflux at 85° C for three hours): 11.26 | available free base HMD extracted ([2]; solvent 1-hexanol): approximately 43% | available free base HMD extracted ([2]; solvent hexane): about 7% | free base HMD available, based on the pH before extraction ([2]; stripped solution from Example 3): 60%
SMILES: NCCCCCCN [HMD, Hexamethylenediamine]

SMILES: CCCCCC [Hexane]
% water in extract [2]: <0.001% | pH after [2]: 12.54 and 11.42 | pH before [2]: 12.55 and 11.48 | % Solubility ([1]; Table 4-1): 9.4 × 10^−4%

% water in extract [2, 6]: 9.08% | pH after [2, 7]: 12.16 | pH before [2, 8]: 12.70
SMILES: CC(C)CCO [Isopentanol]
% Solubility ([1]; Table 4-1): 2.8%

From patent US12503711B2, “Method of producing and processing diamines to a diamine free base using a carbonate intermediate and an engineered microorganism” (Genomatica, Inc., priority 2014, dated 2025)
